“Also recorded” adds a separate entry of the source. Where two headings read alike, the source gives them in different places.
How the values were obtained:
Type in all cases: cell-based
[1] = target: T1, mOATP1B2 (Mus musculus, UniProt Q9JJL3); test: cis-inhibition of mOATP1B2-mediated E1S or TCA uptake in HEK293 cells
T1 construct: The full-length mOATP1B2 and rOATP1B2 consist of 689 and 678 amino acids
T1 sequence (Q9JJL3 1-689): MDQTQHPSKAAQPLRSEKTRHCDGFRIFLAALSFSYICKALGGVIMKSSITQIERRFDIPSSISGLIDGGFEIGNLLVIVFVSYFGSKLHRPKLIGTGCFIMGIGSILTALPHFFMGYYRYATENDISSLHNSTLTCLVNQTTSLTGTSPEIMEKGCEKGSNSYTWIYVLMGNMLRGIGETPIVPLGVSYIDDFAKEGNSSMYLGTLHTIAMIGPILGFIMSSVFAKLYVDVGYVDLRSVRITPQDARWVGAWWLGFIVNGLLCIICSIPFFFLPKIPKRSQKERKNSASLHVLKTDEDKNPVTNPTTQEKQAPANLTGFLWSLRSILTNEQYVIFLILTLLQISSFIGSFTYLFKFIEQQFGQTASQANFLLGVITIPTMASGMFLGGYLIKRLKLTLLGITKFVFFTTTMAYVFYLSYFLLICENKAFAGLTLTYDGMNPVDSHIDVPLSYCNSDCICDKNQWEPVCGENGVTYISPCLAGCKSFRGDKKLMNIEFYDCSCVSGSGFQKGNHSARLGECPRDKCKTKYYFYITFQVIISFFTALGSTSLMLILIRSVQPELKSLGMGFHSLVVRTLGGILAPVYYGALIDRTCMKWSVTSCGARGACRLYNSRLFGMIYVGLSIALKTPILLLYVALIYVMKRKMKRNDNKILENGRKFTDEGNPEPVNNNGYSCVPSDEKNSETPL
Procedure: Inhibition experiments with mOATP1B2 and rOATP2B1 were carried out in triplicate as cis-inhibition. […] Inhibitory effects were calculated as a percentage of the net-uptake rates. […] The means ± average deviation (AD, for N = 2) were calculated from two experiments on two different days. The significance as a p-value was calculated using Student's t-test in Microsoft Excel.

[2] = target: T2, rOATP1B2 (Rattus norvegicus, UniProt Q9QZX8); test: cis-inhibition of rOATP1B2-mediated E1S or TCA uptake in HEK293 cells
T2 construct: The full-length mOATP1B2 and rOATP1B2 consist of 689 and 678 amino acids
T2 sequence (Q9QZX8 1-687): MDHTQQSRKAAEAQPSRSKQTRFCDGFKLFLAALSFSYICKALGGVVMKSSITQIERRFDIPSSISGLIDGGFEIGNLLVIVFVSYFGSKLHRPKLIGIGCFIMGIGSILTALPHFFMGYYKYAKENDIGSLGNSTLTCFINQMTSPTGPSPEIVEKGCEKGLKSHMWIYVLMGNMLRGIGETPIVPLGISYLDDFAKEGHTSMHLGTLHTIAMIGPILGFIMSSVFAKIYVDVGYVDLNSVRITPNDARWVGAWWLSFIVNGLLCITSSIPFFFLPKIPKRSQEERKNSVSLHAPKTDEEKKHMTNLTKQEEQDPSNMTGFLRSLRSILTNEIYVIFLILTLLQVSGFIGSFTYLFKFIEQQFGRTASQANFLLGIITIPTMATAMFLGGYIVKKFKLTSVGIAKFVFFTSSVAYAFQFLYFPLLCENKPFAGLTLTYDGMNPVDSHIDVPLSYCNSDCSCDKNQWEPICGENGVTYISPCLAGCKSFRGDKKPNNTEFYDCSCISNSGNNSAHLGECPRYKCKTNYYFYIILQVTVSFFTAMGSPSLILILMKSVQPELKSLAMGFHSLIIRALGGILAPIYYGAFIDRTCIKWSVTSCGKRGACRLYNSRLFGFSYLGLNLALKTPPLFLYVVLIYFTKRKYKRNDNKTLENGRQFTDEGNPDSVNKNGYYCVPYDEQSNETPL

[3] = target: T3, hOATP1B3 (Homo sapiens, UniProt Q9NPD5); test: cis-inhibition of hOATP1B3-mediated TCA uptake in HEK293 cells; design: expressed in transfected cells; host or cells: HEK-293, stably transfected; conditions: 10 µM drug; for inhibition at 10 min, 10 µM: human, HEK293 cells expressing hOATP1B3, probe 1 µM TCA (containing 0.01 µM [3H]-TCA), Inhibitory effect on hOATP1B3-mediated TCA uptake; for Inhibitory effect on hOATP1B3-mediated TCA uptake: 1 µM TCA, 10 min
T3 sequence (Q9NPD5 1-702): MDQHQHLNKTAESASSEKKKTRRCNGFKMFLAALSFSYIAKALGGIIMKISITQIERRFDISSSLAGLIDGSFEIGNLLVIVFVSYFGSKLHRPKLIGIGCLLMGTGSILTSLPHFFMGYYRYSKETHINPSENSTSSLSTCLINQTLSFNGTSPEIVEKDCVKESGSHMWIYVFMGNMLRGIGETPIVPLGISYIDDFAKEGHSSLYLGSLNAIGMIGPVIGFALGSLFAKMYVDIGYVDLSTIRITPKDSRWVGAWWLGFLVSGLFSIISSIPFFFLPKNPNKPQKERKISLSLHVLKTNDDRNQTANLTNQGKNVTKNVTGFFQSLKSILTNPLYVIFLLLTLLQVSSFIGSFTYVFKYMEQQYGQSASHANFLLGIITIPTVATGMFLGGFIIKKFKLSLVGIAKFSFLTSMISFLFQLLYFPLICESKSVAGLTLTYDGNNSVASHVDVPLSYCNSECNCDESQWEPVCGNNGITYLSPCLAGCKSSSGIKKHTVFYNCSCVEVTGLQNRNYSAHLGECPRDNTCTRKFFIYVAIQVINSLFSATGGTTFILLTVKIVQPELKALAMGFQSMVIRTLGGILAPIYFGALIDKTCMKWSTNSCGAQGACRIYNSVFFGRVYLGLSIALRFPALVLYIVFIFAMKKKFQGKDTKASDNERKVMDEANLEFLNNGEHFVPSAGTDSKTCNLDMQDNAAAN
Procedure: Inhibitory effects were calculated as a percentage of the net-uptake rates.
The means ± average deviation (AD, for N = 2) were calculated from two experiments on two different days. The significance as a p-value was calculated using Student’s t-test in Microsoft Excel.

[4] = HEK293, 10 µM drug, 1 µM [3H]-E1S, 1 min, read-out: Inhibitory effect on mOATP1B2-mediated E1S uptake
[5] = HEK293, read-out: Inhibitory effect on mOATP1B2-mediated TCA uptake, 10 µM drug, 1 µM [3H]-TCA, 1 min
[6] = HEK293, read-out: Inhibitory effect on mOATP1B2-mediated substrate uptake (summary over E1S and TCA), 10 µM drug, substrates E1S and TCA not separated
[7] = HEK293, 10 µM drug, 1 µM [3H]-E1S, 1 min, read-out: Inhibitory effect on rOATP1B2-mediated E1S uptake
[8] = HEK293, read-out: Inhibitory effect on rOATP1B2-mediated TCA uptake, 10 µM drug, 1 µM [3H]-TCA, 1 min
[9] = 10 µM drug, substrates E1S and TCA not separated
[10] = HEK293, read-out: Inhibitory effect on rOATP1B2-mediated substrate uptake (summary over E1S and TCA), 10 µM drug, substrates E1S and TCA not separated

| Structure (SMILES) | IC50 ([1]; 1 µM [3H]-E1S, 1 min, read-out: IC50, mOATP1B2-mediated E1S uptake) [µM] | difference in inhibition between mOATP1B2 and rOATP1B2 ([1]; 10 µM drug) [%] | inhibition at 10 µM [1, 4] [%] | inhibition at 10 µM [1, 5] [%] | inhibition at 10 µM [1, 6] [%] | IC50 ([1]; IC50, mOATP1B2-mediated TCA uptake, 1 µM [3H]-TCA, 1 min) [µM] | IC50 ([2]; 1 µM [3H]-E1S, 1 min, read-out: IC50, rOATP1B2-mediated E1S uptake) [nM] | fold difference of IC50 between mOATP1B2 and rOATP1B2 (stronger inhibition of rOATP1B2) ([2]; E1S uptake) [fold] | inhibition at 10 µM [2, 7] [%] | inhibition at 10 µM [2, 8] [%] | IC50 ([2]; IC50, rOATP1B2-mediated TCA uptake, 1 µM [3H]-TCA, 1 min) [nM] | fold difference of IC50 between mOATP1B2 and rOATP1B2 ([2]; TCA uptake) [fold] | inhibition at 10 min, 10 µM [3] [%] | Inhibitory effect on hOATP1B3-mediated TCA uptake [3] | inhibition at 10 µM [2, 10] [%] | Inhibitory effect on hOATP1B3-mediated TCA uptake ([3]; listed as amprenavir) | Inhibitory effect on hOATP1B3-mediated TCA uptake ([3]; listed as ketoconazole) | Inhibitory effect on mOATP1B2-mediated substrate uptake (summary over E1S and TCA) [1, 9] | Inhibitory effect on rOATP1B2-mediated substrate uptake (summary over E1S and TCA) [2, 9] |
| --- | --- | --- | --- | --- | --- | --- | --- | --- | --- | --- | --- | --- | --- | --- | --- | --- | --- | --- | --- |
| CO[C@H]1/C=C/O[C@@]2(C)Oc3c(C)c(O)c4c(O)c(c(/C=N/N5CCN(C)CC5)c(O)c4c3C2=O)NC(=O)/C(C)=C\C=C\[C@H](C)[C@H](O)[C@@H](C)[C@@H](O)[C@@H](C)[C@H](OC(C)=O)[C@@H]1C [Rifampicin, rifampicin] | 9.6 | > 30 | 44 | 53 | ≥ 50 | 7.7 | 1100 | 8.7 | 93 | 83 | 2400 | 3.2 | 104 |  |  |  |  |  |  |
| CC(C)c1nc(N(C)S(C)(=O)=O)nc(-c2ccc(F)cc2)c1/C=C/[C@@H](O)C[C@@H](O)CC(=O)O [Rosuvastatin, rosuvastatin] |  |  | 50 | 52 | ≥ 50 |  |  |  | 73 | 69 |  |  | 24 |  | ≥ 50 |  |  |  |  |
| CCCCC1(CCCC)CN(c2ccccc2)c2cc(SC)c(OCC(=O)N[C@@H](C(=O)N[C@@H](CC)C(=O)O)c3ccc(O)cc3)cc2S(=O)(=O)N1 [Odevixibat, odevixibat] |  |  | 69 | 54 | 54 to 82 |  |  |  | 82 | 74 |  |  | 102 | completely inhibited; also recorded: complete inhibition | 54 to 82 |  |  |  |  |

The next lines start with results.

| IC50 ([1]; 1 µM [3H]-E1S, 1 min, read-out: IC50, mOATP1B2-mediated E1S uptake) [µM] | difference in inhibition between mOATP1B2 and rOATP1B2 ([1]; 10 µM drug) [%] | inhibition at 10 µM [1, 4] [%] | inhibition at 10 µM [1, 5] [%] | inhibition at 10 µM [1, 6] [%] | IC50 ([1]; IC50, mOATP1B2-mediated TCA uptake, 1 µM [3H]-TCA, 1 min) [µM] | IC50 ([2]; 1 µM [3H]-E1S, 1 min, read-out: IC50, rOATP1B2-mediated E1S uptake) [nM] | fold difference of IC50 between mOATP1B2 and rOATP1B2 (stronger inhibition of rOATP1B2) ([2]; E1S uptake) [fold] | inhibition at 10 µM [2, 7] [%] | inhibition at 10 µM [2, 8] [%] | IC50 ([2]; IC50, rOATP1B2-mediated TCA uptake, 1 µM [3H]-TCA, 1 min) [nM] | fold difference of IC50 between mOATP1B2 and rOATP1B2 ([2]; TCA uptake) [fold] | inhibition at 10 min, 10 µM [3] [%] | Inhibitory effect on hOATP1B3-mediated TCA uptake [3] | inhibition at 10 µM [2, 10] [%] | Inhibitory effect on hOATP1B3-mediated TCA uptake ([3]; listed as amprenavir) | Inhibitory effect on hOATP1B3-mediated TCA uptake ([3]; listed as ketoconazole) | Structure (SMILES) | Inhibitory effect on mOATP1B2-mediated substrate uptake (summary over E1S and TCA) [1, 9] | Inhibitory effect on rOATP1B2-mediated substrate uptake (summary over E1S and TCA) [2, 9] |
| --- | --- | --- | --- | --- | --- | --- | --- | --- | --- | --- | --- | --- | --- | --- | --- | --- | --- | --- | --- |
|  |  | 6 | -2 |  |  |  |  | -10 | -10 |  |  | -44 | did not inhibit |  |  |  | Clc1ccccc1C(c1ccccc1)(c1ccccc1)n1ccnc1 [Clotrimazole, clotrimazole] | no inhibitory properties; also recorded: did not inhibit | no inhibitory properties; also recorded: did not inhibit |
|  |  | 12 | 32 | < 50 |  |  |  | 21 | 27 |  |  |  | 21% | < 50 | less than 50% |  | CC(C)CN(C[C@@H](O)[C@H](Cc1ccccc1)NC(=O)O[C@H]1CCOC1)S(=O)(=O)c1ccc(N)cc1 [Amprenavir, amprenavir] |  |  |
|  |  | 41 | 29 | < 50 |  |  |  | 34 | 19 |  |  |  | 23% | < 50 |  | less than 50% | CC(=O)N1CCN(c2ccc(OCC3COC(Cn4ccnc4)(c4ccc(Cl)cc4Cl)O3)cc2)CC1 (stereo not shown) [Ketoconazole, ketoconazole] |  |  |

— publication PMC12846068, “Insights into Transport Function of the Murine Organic Anion-Transporting Polypeptide OATP1B2 by Comparison with Its Rat and Human Orthologues” (Toxics, 2025)
